In patent publication US8431581B2, “Imidazopyrimidines and uses thereof” (priority 2008, dated 2013):

Legend:
[1] = system: HIV WT integrase; assay: Phenosense (PhenoScreen) assay, wild type virus; type: cell-based; settings: Human immunodeficiency virus 1, read-out: Phenosense assay WT activity value
Description: (§1) Monogram Bioscience' PhenoScreen assay allows the evaluation of integrase inhibitors for activity against a variety of HIV variants. The assay uses virus generated from 2 DNA constructs; one containing the HIV LTR, gag and pol regions, as well as a luciferase reporter gene in place of the viral envelope genes, and a second DNA construct containing the amphotrophic murine leukemia virus (A-MLV) envelope gene required to pseudotype virions and render them capable of entry into a target cell. Viruses generated using these constructs by transfection into a producer cell line such as 293T are capable of one-round of infection only. Successful integration events are directly proportional to the levels of luciferase expression 48-72 h after infection.
(§2) The viral variants chosen by Avexa Ltd. to screen their in-house integration inhibitors against consist of mutations within the viral integrase enzyme known to confer resistance to a number of known integration inhibitors published in the literature. In particular, the viral variants containing the Q148H/G140S double mutation in integrase, and the N155H/E92Q double mutation in integrase, represent two of the more common viruses identified to arise in patients that are failing treatment with Isentress (Raltegravir, MK-0518).
(§3) Both the Phenosense assay and the Enzyme assay give substantially the same activity values for any particular compound and enzyme pair. The activity of one compound in one assay can therefore be directly compared to the activity of a second compound in the other assay.

[2] = system: HIV variant Y143R integrase; assay: Phenosense (PhenoScreen) assay, Y143R variant; type: cell-based; settings: Human immunodeficiency virus 1, read-out: Phenosense assay Y143R activity value
Description: as §1, §2, §3

[3] = system: HIV variant E92Q N155H integrase; assay: Phenosense (PhenoScreen) assay, E92Q N155H variant; type: cell-based; settings: Human immunodeficiency virus 1, read-out: Phenosense assay E92Q N155H activity value
Description: as §1, §2, §3

[4] = system: HIV variant G140S Q148H integrase; assay: Phenosense (PhenoScreen) assay, G140S Q148H variant; type: cell-based; settings: Human immunodeficiency virus 1, read-out: Phenosense assay G140S Q148H activity value
Description: as §1, §2, §3

[5] = system: HIV variant T125K F121Y integrase; assay: Phenosense (PhenoScreen) assay, T125K F121Y variant; type: cell-based; settings: Human immunodeficiency virus 1, read-out: Phenosense assay T125K F121Y activity value
Description: as §1, §2, §3

[6] = system: HIV variant T661 S153Y integrase; assay: Phenosense (PhenoScreen) assay, T661 S153Y variant; type: cell-based; settings: Human immunodeficiency virus 1, read-out: Phenosense assay T661 S153Y activity value
Description: as §1, §2, §3

[7] = target: T1, HIV integrase WT (Human immunodeficiency virus type 1 group M subtype B, UniProt P12497); assay: Strand transfer assay (enzyme assay), wild type; type: biochemical, HIV-1
T1 construct: The integrase coding region was then subject to PCR and cloned into a bacterial expression vector; made in house
Description: (§4) HIV integrase was mutated within a shuttle vector (pGEMNLHE) containing the majority of the HIV-1 gag and pol sequence using site directed mutagenesis to generate integrase sequences that have been published as conferring resistance to published integrase inhibitors. These include, but are not limited to, mutations such as Q148K, Q148H/G140S and N155H/E92Q. The integrase coding region was then subject to PCR and cloned into a bacterial expression vector. The specific introduction of desired mutation(s) was confirmed by sequence analysis. Proteins were expressed, purified and used in strand transfer assays.
(§5) A strand transfer assay procedure similar to that published (Ovenden et al. Phytochemistry. 2004 December; 65(24):3255-9.) is used. Briefly, 400 ng of the enzyme, wild type or drug resistant mutant, is mixed with the compound to be tested and incubated with 30 nM substrate DNA. The substrate DNA is designed to mimic HIV DNA termini that has undergone 3′ end processing, and consists of the annealed U5 LTR sequence oligonucleotides tagged with Digoxigenin (DIG; 5′-[…]-DIG-3′) or biotin (5′-Bio-[…]-3′) so that each substrate has either a DIG or Bio tag on opposite strands. Reactions are carried out for 1 hr at 37° C. Products generated as a result of strand transfer activity are bound to streptavidin plates and detected using anti-DIG-alkaline phosphatase conjugate and p-nitro phenyl phosphate substrate.
as §3

[8] = target: T2, HIV integrase E92Q/N155H (Human immunodeficiency virus type 1 group M subtype B, UniProt P12497, E1239Q/N1302H); assay: Strand transfer assay (enzyme assay), E92Q/N155H mutant; type: biochemical, HIV-1
T2 construct: The integrase coding region was then subject to PCR and cloned into a bacterial expression vector; made in house
Description: as §4, §5, §3

[9] = target: T3, HIV integrase G140S/Q148H (Human immunodeficiency virus type 1 group M subtype B, UniProt P12497, G1287S/Q1295H); assay: Strand transfer assay (enzyme assay), G140S/Q148H mutant; type: biochemical, HIV-1
T3 construct: The integrase coding region was then subject to PCR and cloned into a bacterial expression vector; made in house
Description: as §4, §5, §3

[10] = system: HIV-1 reporter virus, wild-type (WT) integrase; assay: Luciferase reporter virus infectivity assay, WT; type: cell-based; settings: Human immunodeficiency virus 1, HEK-293T, 48 h, read-out: Luciferase assay results WT (EC50)
Description: (§6) Infectivity assays using reporter viruses derived from lentiviral vectors capable of a single round of infection were used to determine the activity (EC50) of compounds. The DNA used to generate viruses for infection was the full-length HIV-1 genome which had been envelope-deleted. In addition, a reporter gene (the firefly luciferase gene from Photinus pyralis) was cloned into the nef region of the HIV backbone for ease of assay readout. […]. Culture supernatants containing VSV-G pseudotyped virions were harvested 64 h post transfection, clarified by centrifugation to remove cell debris, and frozen at −70° C. until use.
(§7) HIV integrase was mutated within a shuttle vector (pGEM) containing the majority of the HIV-1 gag and pol sequence using site-directed mutagenesis to generate sequences that are known to confer resistance to published integrase inhibitors. These include but are not limited to mutations such as Q148H/G140S (in tables 2 and 3 # QHGS), N155H/E92Q (in table 2 # NHEQ), F121Y/T124K (in table 2 FYTK), Y143R (in table 2 # Y143R) and the triple mutant Q148K/G140A/E138A. (in table 2 # QKGAEA). The mutated integrase coding region within the shuttle vector was sequence verified, and then exchanged for the wild-type (WT) coding sequence in the reporter virus DNA backbone.
(§8) 293T cells were plated out at 12000 cells per well in CellView 96-well cell culture plates (Invitrogen) 16 h prior to compound addition. Compounds were preincubated with cells for 4 h at 37° C. prior to the addition of virus sufficient to generate approximately 10000 Luciferase light units (as measured by the Victor Wallace luminometer) upon assaying using the Bright-Glo™ reagent (Promega) according to the manufacturer's instructions at 48 h post infection.

[11] = system: HIV-1 reporter virus, integrase Q148H/G140S (QHGS); assay: Luciferase reporter virus infectivity assay, QHGS mutant; type: cell-based; settings: Human immunodeficiency virus 1, HEK-293T, read-out: Luciferase assay results QHGS (EC50)
Description: as §6, §7, §8

[12] = system: HIV-1 reporter virus, integrase N155H/E92Q (NHEQ); assay: Luciferase reporter virus infectivity assay, NHEQ mutant; type: cell-based; settings: Human immunodeficiency virus 1, HEK-293T, read-out: Luciferase assay results NHEQ (EC50)
Description: as §6, §7, §8

SMILES | IC50 [7] [nM] | IC50 [8] [nM] | IC50 [9] [nM] | EC50 [10] [nM] | EC50 [11] [nM] | further results
O=C(Cn1ccn2c(=O)c(O)c(-c3ncc(Cc4ccc(F)cc4)o3)nc12)N1CCCCC1 | 1 to 100 |  |  |  |  | EC50 [1]: 1 to 100 nM; EC50 [2]: 100 to 1000 nM; EC50 [3]: 100 to 1000 nM; EC50 [4]: 1000 to 10000 nM; EC50 [5]: 100 to 1000 nM; EC50 [6]: 1 to 100 nM
Cn1ccn2c(=O)c(O)c(-c3ncc(Cc4ccc(F)cc4)s3)nc12 | 1 to 100 | 100 to 1000 | 1 to 100 |  |  | 
Cn1ccn2c(=O)c(O)c(-c3ncc(Cc4ccc(Cl)cc4)s3)nc12 | 1 to 100 | 100 to 1000 | 100 to 1000 |  |  | 
Cn1ccn2c(=O)c(O)c(-c3ncc(Cc4ccc(Cl)c(Cl)c4)s3)nc12 | 1 to 100 | 100 to 1000 | 100 to 1000 |  |  | 
Cn1ccn2c(=O)c(O)c(-c3ncc(Cc4ccc(F)c(Cl)c4)s3)nc12 | 1 to 100 | 100 to 1000 | 100 to 1000 |  |  | 
Cn1ccn2c(=O)c(O)c(C(=O)NCc3ccc(Cl)c(Cl)c3)nc12 | 100 to 1000 |  |  |  |  | EC50 [1]: 1 to 100 nM; EC50 [2]: 1 to 100 nM; EC50 [3]: > 10000 nM; EC50 [4]: > 10000 nM; EC50 [5]: 1000 to 10000 nM; EC50 [6]: 100 to 1000 nM
Cn1ccn2c(=O)c(O)c(C(=O)NCc3ccc(F)cc3)nc12 | 100 to 1000 |  |  |  |  | EC50 [1]: 100 to 1000 nM; EC50 [2]: 100 to 1000 nM; EC50 [3]: > 10000 nM; EC50 [4]: > 10000 nM; EC50 [5]: > 10000 nM; EC50 [6]: 1000 to 10000 nM
C[C@H]1CN(C(=O)Cn2ccn3c(=O)c(O)c(-c4ncc(Cc5ccc(Cl)c(Cl)c5)s4)nc23)C[C@H](C)O1 |  |  |  | 1 to 100 | 100 to 1000 | 
O=C(Cn1ccn2c(=O)c(O)c(-c3ncc(Cc4ccc(F)cc4)s3)nc12)N1CCCCC1 |  |  |  | 1 to 100 | > 1000 | 
C[C@H]1CN(C(=O)Cn2ccn3c(=O)c(O)c(-c4ncc(Cc5ccc(F)c(Cl)c5)s4)nc23)C[C@H](C)O1 |  |  |  | 100 to 1000 | 100 to 1000 | EC50 [12]: 100 to 1000 nM
CN1CCN(C(=O)Cn2ccn3c(=O)c(O)c(-c4ncc(Cc5ccc(F)cc5)s4)nc23)CC1 |  |  |  | 100 to 1000 | > 1000 | EC50 [12]: 100 to 1000 nM
C[C@H]1CN(C(=O)Cn2ccn3c(=O)c(O)c(-c4ncc(Cc5ccc(F)cc5)s4)nc23)C[C@H](C)O1 [drawing 254] |  |  |  | 1 to 100 | 100 to 1000 | EC50 [12]: 100 to 1000 nM
